According to patent US11261189B2, “Substituted 2,4 diamino-quinoline as new medicament for fibrosis, autophagy and cathepsins B (CTSB), L (CTSL) and D (CTSD) related diseases” (Genoscience Pharma, priority 2018, dated 2022):

Tests used:
[1] = target: T1, cathepsin B (CTSB) (Homo sapiens, UniProt P07858); assay: Cathepsin B (CTSB) catalytic activity in lysates of treated HepG2 cells (Z-RR-AMC substrate); assay type: cell-based; conditions: HepG2; 7.5 μM, 6 hours and 24 hours
T1 construct: endogenous in cells; host or cells: HepG2
Protocol: (§1) Lysosomal functions was investigated in a hepatocellular carcinoma (HCC) cell line HepG2 after 6 hours and 24 hours of treatment with compound 2-3 (the hydrochloride salt form of compound 2-2) using functional assays of some lysosomal enzymes activity: two cysteine proteinases: cathepsin B (CTSB) and cathepsin L (CTSL), and one aspartic proteinase: cathepsin D (CTSD). Two sets of three concentrations of compound 2-3 (1 μM, 2 μM, and 4 μM for 6 hours, and 0.5 μM, 1 μM and 2 μM for 24 hours) were tested at least in triplicate and four independent experiments were performed. Salinomycin (7.5 μM for 6 hours and 24 hours) was used as a positive control.
(§2) The HepG2 cell line was maintained in DMEM (Dulbecco's Modified Eagle Media) high glucose (Cat #L0103-500, Dutscher) containing 1% penicillin-streptomycin (Cat #P06-07100, Dutscher) and 10% FBS (Fetal Bovine Serum) (Cat #11543407, Life Technologies). Cells were cultured at 37° C. with 5% CO2.
(§3) The day before the experiment, 6-well plates (Cat #353046, Dutscher) with 250,000 cells in 2.7 mL of medium per well were prepared.
(§4) Compound 2-3 was dissolved with filtrated H2O mQ to make a 10 mM stock solution and serial working solutions (10× solutions) were prepared with the diluent (=culture medium with 0.4% H2O mQ) at 5 μM, 10 μM, 20 μM and 40 μM: the “dilution 1” is made from the 10 mM stock solution in the culture medium and the following serial dilutions were made in the diluent to maintain a constant percentage of H2O.
(§5) Salinomycin [CAS 53003-10-4] was used as positive control and was dissolved with methanol to make a 10 mM stock solution and a 10× solution at 75 μM was prepared with the culture medium.
(§6) 300 μL of compound 2-3 10× solutions (solutions at 10 μM, 20 μM and 40 μM for 6 hours of treatment and solutions at 5 μM, 10 μM and 20 μM for 24 hours of treatment) or 300 μL of diluent (=non-treated (NT) condition) or 300 μL of Salinomycin 10× solution were dispensed in the appropriate wells (4 wells/condition). After cells treatment, 6-well plates were returned to incubator for 6 hours or 24 hours.
(§7) After 6 hours or 24 hours of cells treatment, the medium was removed from each well. The cells were carefully rinsed with PBS (phosphate-buffered saline, Cat #L0615-500, Dutscher) and detached with 500 μL per well of a trypsin solution. After 5 min of trypsin (Cat #L0930-100, Dutscher) incubation at 37° C., 800 μL of medium was added per well and transferred to a 1.5 mL tube. Then, 800 μL of PBS was used to rinse each well and the corresponding solution was pooled in each corresponding 1.5 mL tube. […] Total protein concentration was assessed using the Bradford reagent (Cat #B6916-500ML, Sigma-Aldrich) and cellular lysates were stored at −80° C. until catalytic activity measurement. […]

[2] = target: T2, cathepsin D (CTSD) (Homo sapiens, UniProt P07339); assay: Cathepsin D (CTSD) peptidase activity in lysates of treated HepG2 cells (MOCAc quenched fluorogenic substrate); assay type: cell-based; conditions: HepG2; 7.5 μM, 6 hours and 24 hours
T2 construct: cell lysates (1 μg of total proteins) were pre-incubated with citrate buffer pH 4.0; endogenous in cells; host or cells: HepG2
Protocol: as §1, §2, §3, §4
Salinomycin [CAS 53003-10-4] was used as positive control and was dissolved with methanol to make a 10 mM stock solution and a 10× solution at 75 μM was prepared with the culture medium. […]
After 6 hours or 24 hours of cells treatment, the medium was removed from each well. […] Total protein concentration was assessed using the Bradford reagent (Cat #B6916-500ML, Sigma-Aldrich) and cellular lysates were stored at −80° C. until catalytic activity measurement. […]

[3] = tested on: cathepsins B and L (CTSB/L); assay: Overall cathepsins B and L (CTSB/L) peptidase activity in lysates of treated HepG2 cells (Z-FR-AMC substrate); assay type: cell-based; conditions: HepG2; 7.5 μM, 6 hours and 24 hours
Protocol: as §1, §2, §3, §4, §5, §6, §7

[4] = tested on: diethyl nitrosamine (DEN) cirrhotic rat model of liver fibrosis; assay: DEN induced cirrhosis in rats, study 1: Sirius red quantification of liver fibrosis; assay type: in vivo; conditions: group 2: Sorafenib 10 mg/kg/day p.o. q.d., 6 weeks after 14 weeks DEN
From the text: This animal model allows developing an extensive liver fibrosis, leading to a compensated liver cirrhosis with a multifocal hepatocarcinoma (HCC) after 14 weeks of induction (Schiffer, E. et al. Hepatology 2005 (41), 307-314). The DEN cirrhotic rat animal model was used here as a specific animal model of liver fibrosis.
Forty two Fisher 344 male rat (obtained from Charles River Laboratories France, including spare animals), weighting approximately 280 g at the start of the study, were randomized in 5 groups of 8 (groups 1, 2, 3 and 5) or 6 (group 4) animals and housed with 3 animals per cage, given free access to food and water and allowed to acclimate for at least 5 days prior to test initiation.
The DEN cirrhotic rat model was obtained after 14 weekly intraperitoneal injections of DEN (intra-peritoneal injections (i.p.) of DEN at 50 mg/kg/week). The animals were then treated according to Table 9 during 6 weeks. In this in vivo experiment, the anti-fibrotic activity of compound 2-3 was evaluated in liver fibrosis animal model, alone or in combination with Sorafenib (a multikinase inhibitor of Raf-1, B-Raf, VEGFR-2, VEGFR3, PDGFRβ, Flt3 and c-Kit). After 6 weeks of treatment, all animals were sacrificed using CO2 and rat livers were collected for analysis. The quantification of the liver fibrotic tissue was evaluated by Sirius red staining of rat liver sections.
Group 1 contained 8 animals which were daily dosed (q.d.) by oral gavage (per os, p.o.) with the vehicle during 6 weeks.
Group 2 contained 8 animals which were daily dosed (q.d.) by oral gavage (per os, p.o.) with Sorafenib at 10 mg/kg/day during 6 weeks.
Group 3 contained 8 animals which were daily dosed (q.d.) by oral gavage (per os, p.o.) with compound 2-3 at 15 mg/kg/day during 6 weeks.
Group 4 contained 6 animals which were daily dosed (q.d.) by oral gavage (per os, p.o.) with compound 2-3 at 15 mg/kg/day in combination with Sorafenib at 10 mg/kg/day during 6 weeks.
Group 5 contained 8 animals which were daily dosed (q.d.) by oral gavage (per os, p.o.) with compound 2-3 at 30 mg/kg/day during 6 weeks. […]

[5] = tested on: diethyl nitrosamine (DEN) cirrhotic rat model of liver fibrosis; assay: DEN induced cirrhosis in rats, study 2: Sirius red quantification of liver fibrosis; assay type: in vivo; conditions: group 4 (20/15): 20 mg/kg/day p.o. 4 weeks then 15 mg/kg/day 3 weeks; p=0.03
Protocol: A second in vivo experiment, with the same diethyl nitrosamine (DEN) cirrhotic rat animal model of liver fibrosis, was performed including compound 2-2 (base form of compound 2-3) with discontinued oral dosing schedule and compound 5-3 with daily oral exposure. Compounds 2-2 and 5-3 were administered p.o. by gavage (oral gavage) once daily during 7 weeks.
Rats were treated with DEN for 13 weeks (intra-peritoneal injections (i.p.) of 50 mg/kg/week) and then treated according to the Table 10 dosage schedule during 7 weeks. At the end of the study, all animals were sacrificed using CO2 and rat livers were collected for analysis. The quantification of the liver fibrotic tissue was evaluated by Sirius red staining of rat liver sections.
Group 1 contained 6 animals which were daily dosed (q.d.) by oral gavage (per os, p.o.) with the vehicle during 7 weeks.
Group 2 contained 8 animals and the corresponding animals were daily dosed (q.d.) by oral gavage (per os, p.o.) with compound 2-2 during 4 weeks at 20 mg/kg/day and then during 3 weeks at 20 mg/kg every 2 days (q.o.d.: quaque altera die, one day treated, on day untreated).
Group 3 contained 8 animals and the corresponding animals were daily dosed (q.d.) by oral gavage (per os, p.o.) with compound 2-2 during 3 weeks at 20 mg/kg/day, then 2 weeks of treatment free period, and were then daily dosed (q.d.) by oral gavage (per os, p.o.) with compound 2-2 during 2 weeks at 20 mg/kg/day.
Group 4 contained 8 animals and the corresponding animals were daily dosed (q.d.) by oral gavage (per os, p.o.) with compound 5-3 during 4 weeks at 20 mg/kg/day, and were then daily dosed (q.d.) by oral gavage (per os, p.o.) with compound 5-3 during 3 weeks at 15 mg/kg/day.
Compound 2-2 and 5-3 were formulated in water for injection acidified with hydrochloric acid to pH 4.

T2 sequence (P07339 65-412): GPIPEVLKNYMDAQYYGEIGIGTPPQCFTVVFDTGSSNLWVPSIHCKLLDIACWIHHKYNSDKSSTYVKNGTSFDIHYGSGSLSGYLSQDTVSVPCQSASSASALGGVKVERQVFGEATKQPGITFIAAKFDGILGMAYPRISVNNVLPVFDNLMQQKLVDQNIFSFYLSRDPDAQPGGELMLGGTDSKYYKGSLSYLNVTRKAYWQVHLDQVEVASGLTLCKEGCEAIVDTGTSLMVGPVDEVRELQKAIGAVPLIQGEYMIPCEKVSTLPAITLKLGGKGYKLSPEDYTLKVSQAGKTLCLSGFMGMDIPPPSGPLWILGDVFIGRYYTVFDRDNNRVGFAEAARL

## CC[C@@H](C(=O)[C@@H](C)[C@@H](O)[C@H](C)[C@@H]1O[C@@H]([C@@H](CC)C(=O)O)CC[C@@H]1C)[C@H]1O[C@]2(C=C[C@@H](O)[C@]3(CC[C@@](C)([C@H]4CC[C@](O)(CC)[C@H](C)O4)O3)O2)[C@H](C)C[C@@H]1C [Salynomycin, Salinomycin, reference compound]
[1]
  proteolytic activity of cathepsin B (positive control): significantly decreased
[2]
  proteolytic activity of cathepsin D (positive control): significantly decreased
[3]
  proteolytic activity of cathepsins B/L (positive control): significantly decreased

## CNC(=O)c1cc(Oc2ccc(NC(=O)Nc3ccc(Cl)c(C(F)(F)F)c3)cc2)ccn1 [Sorafenib, reference compound]
[4]
  reduction of the level of collagen fibers deposition (Sirius red) compared to the control group: 13.6%

## CC(C)(C)NC1CCN(c2cc(NCc3ccc(F)cc3)nc3ccccc23)CC1 [5-3, 2-(4-fluorobenzylamino)-4-(4-tert-butylaminopiperidin-1-yl)-quinoline]
[5]
  reduction of the level of collagen fibers deposition (Sirius red) compared to the control group: 24%
